In US5082828A, “Eclosion hormone peptides” (Sandoz Ltd., priority 1991, dated 1992):

How the values were obtained:
larval molt = conditions: EH present in the hemolymph during a sensitive period when it is normally absent; cited from earlier work
[1] = system: pharate adult H. virescens; design: species or system Heliothis virescens; conditions: in vivo
Procedure: The biological activity of EH in fractions from each purification step is detected using a pharate adult H. virescens in vivo assay, similar to that described by Fugo (1983) Appl. Ent. Zoo. 18:540-44 and Truman (1973) Biol. Bull. 14:44:200-211, both of which are incorporated by reference. Insects are injected in the dorsal thorax with 5 μl aliquots dissolved in physiological saline, approximately 7 hr before normal eclosion, which occurs just after the onset of darkness. Moths eclosing within 3 hr of injection are scored as receiving EH, a positive response.

[2] = system: late second stadium M. sexta; assay type: in vivo, Manduca sexta
Procedure: The biological activity of isolated EH is assayed as follows. Late second stadium M. sexta are selected for assay when third stadium mandibles are visible through the fluid-filled second stadium head capsule. Development of these larvae, held at 31° C., is checked at 15 min intervals until an air bubble first appears in the head capsule. "Air bubble" larvae are immediately injected in the dorsal abdomen with 1 μl of the test fractions, and time to molt of treated and controls is compared at room temperature ~21° C.). Mean time to molt for EH-affected larvae is 50 min; that for controls is 109 min. Purified EH is active at 0.1 ng per pharate adult H. virescens, and at 0.01 ng per second stadium M. sexta.

Eclosion hormone [EH]
effect on larval molt (larval molt): block the larval molt completely
dose evoking positive EH-like response (active dose) [1]: 0.1 ng per pharate adult
mean time to molt ([2]; EH-affected larvae at room temperature ~21° C., controls 109 min): 50 min
dose evoking positive EH-like response (active dose) ([2]; in vivo): 0.01 ng per second stadium M. sexta
